What was measured:
Format in all cases: in vivo
creeping bentgrass = experiment: Golf course green creeping bentgrass height, clip weight and quality, ABA and uniconazole-P (Example 5); conditions: 200 ppm ABA
Description: Field studies were conducted at the nursery green or the practice green at Countryside golf course (Mundelein, Ill.). Both greens were sand based and growing Penncross creeping bentgrass. Grass was managed with typical Illinois golf course management practices.
(§1) Chemical solutions were prepared with distilled water. Tween 20 (0.05% v/v) was used as an, adjuvant. Both trinexapac-ethyl (commercial product Primo Maxx, 11.3% active ingredient) and paclobutrazol (commercial product Trimmit 2SC, 22.3% active ingredient) were purchased from Syngenta Crop Protection Inc. (Greensboro, N.C.). Uniconazole-P (commercial product Sumagic, 0.55% active ingredient) was obtained from Valent U.S.A. Corporation (Walnut Creek, Calif.).
(§2) When treated with paclobutrazol or uniconazole-P, turfgrass received irrigation within 24 hours after application to flush chemicals to the root zone. After treatment, turfgrasses were arranged in a randomized complete block experimental design. Turfgrass quality, turfgrass height or clip fresh weight was measured on assigned dates. Turfgrass quality was visually rated on a 0-9 scale based on the color, uniformity and density of the grass with 0 as the worst and 9 as the best. Turfgrass height was measured as the distance between canopy surface and soil. Clips were collected from each plot; all plots were cut to a uniform height.
(§3) All experiments were randomized complete block experimental design. Data were analyzed by analysis of variance. Duncan's new multiple range tests at α=0.05 were used for mean separations.
Tween 20 (0.05% w/v) was included as an adjuvant.

Bermudagrass = Bermudagrass clip weight, ABA and uniconazole-P (Example 7); conditions: 200 ppm ABA; 7 days after treatment
Description: as §1, §2, §3

Kentucky bluegrass [1] = experiment: Greenhouse Kentucky bluegrass height and quality, ABA and paclobutrazol (Example 2); conditions: 200 ppm ABA
Description: (§4) Greenhouse studies were conducted at the Research Farm of Valent BioSciences Corporation (Long Grove, Ill.). Grasses were grown in pots (18 cm in diameter and 18 cm in height) filled with Promix BX (available from Premier Horticulture Inc. Quakertown, Pa.). Grass was irrigated daily by an overhead irrigation system. The irrigation system was set up with multiple Tornado Mist Spray Heads (10 GPH at 40 PSI-Wetted diameter, NDS/Raindrip, Woodland Hills, Calif.). Spray heads were 1-meter apart from each other and 75 cm above grass canopy. Grass was cut with a scissor at 2.5 cm height and fertilizer (1 g/L all purpose fertilizer 20-20-20, available from The Scotts Company, Marysville, Ohio) was applied once per week.
as §1, §2, §3
Kentucky bluegrass sod (unknown variety) was purchased from Deak sod farms, Inc. (Union Grove, Wis.). Grass was grown in the greenhouse in pots (n=6 pots per treatment) for establishment before treatment. […] Turfgrass quality was evaluated at 7 days after treatment, and turfgrass height was measured at 7 and 28 days after treatment. Tween 20 (0.05% w/v) was included as an adjuvant. The turfgrass canopy was cut every 7 days during the experimental period.

Kentucky bluegrass [2] = experiment: Greenhouse Kentucky bluegrass height, ABA and uniconazole-P (Example 3); conditions: 200 ppm ABA
Description: as §4, §1, §2, §3
Kentucky bluegrass sod (unknown variety) was purchased from Deak sod farms, Inc. (Union Grove, Wis.). Grass was grown in the greenhouse in pots (n=6 pots per treatment) for establishment before treatment. […] Tween 20 (0.05% w/v) was included as an adjuvant. The turfgrass was cut every 7 days.

Tall fescue, cv K-31 = experiment: Tall fescue cv K-31 height, ABA and trinexapac-ethyl (Example 6)
Description: as §4, §1, §2, §3

[3] = tested on: Kentucky bluegrass cv Midnight; experiment: Kentucky bluegrass cv Midnight height, ABA and trinexapac-ethyl (Example 6); conditions: 7 days after treatment
Description: as §4
Chemical solutions were prepared with distilled water. Tween 20 (0.05% v/v) was used as an, adjuvant. […]
When treated with paclobutrazol or uniconazole-P, turfgrass received irrigation within 24 hours after application to flush chemicals to the root zone. […] Turfgrass quality, turfgrass height or clip fresh weight was measured on assigned dates. […] Turfgrass height was measured as the distance between canopy surface and soil. […]
All experiments were randomized complete block experimental design. Data were analyzed by analysis of variance. […]

Compound | Clip weight (creeping bentgrass; 7 days after treatment) | Turfgrass height (creeping bentgrass; 7 days after treatment) | Clip weight (creeping bentgrass; 49 days after treatment) | Turfgrass height (creeping bentgrass; 49 days after treatment) | Clip weight (Bermudagrass) | Turfgrass height (Kentucky bluegrass [1]; 7 days after treatment) | Turfgrass height (Kentucky bluegrass [1]; 28 days after treatment) | Turfgrass height (Kentucky bluegrass [2]; 7 days after treatment) | Turfgrass height (Kentucky bluegrass [2]; 42 days after treatment) | Turfgrass height (Tall fescue, cv K-31; 80 ppm trinexapac-ethyl, 7 days after treatment) | Turfgrass height (Tall fescue, cv K-31; 80 ppm trinexapac-ethyl, 21 days after treatment) | Turfgrass height (Tall fescue, cv K-31; 160 ppm trinexapac-ethyl, 7 days after treatment) | Turfgrass height (Tall fescue, cv K-31; 160 ppm trinexapac-ethyl, 21 days after treatment) | Turfgrass height ([3]; 80 ppm trinexapac-ethyl) | Turfgrass height ([3]; 160 ppm trinexapac-ethyl)
S-abscisic acid [ABA] | 2.0 g | 5.0 cm | 2.7 g | 4.6 cm | 1.8 g | 11.7 cm | 9.7 cm | 12.3 cm | 9.4 cm |  |  |  |  |  | 
CCOC(=O)C1CC(=O)C(=C(O)C2CC2)C(=O)C1 (stereo not drawn) [trinexapac-ethyl] |  |  |  |  |  |  |  |  |  | 11.8 cm | 19.8 cm | 9.7 cm | 20.1 cm | 7.6 cm | 6.7 cm

Reference: patent publication US20080227638A1, “Use of abscisic acid to enhance growth control” (priority 2007, published 2008)
